From patent publication US11370785B2, “Multicyclic compounds as farnesoid X receptor modulators” (BRISTOL-MYERS SQUIBB COMPANY, priority 2017, dated 2022) come the findings set out here.

One test has as its target T1, human FXR (Homo sapiens, UniProt Q96RI1).
T1 construct: expressed in transfected cells; host or cells: HEK293 cells stably carrying a 5xGal4-response-element firefly luciferase reporter, transiently transfected with the pcDNA3.1-Gal4-FXR plasmid
T1 sequence (Q96RI1 262-486 limits assumed): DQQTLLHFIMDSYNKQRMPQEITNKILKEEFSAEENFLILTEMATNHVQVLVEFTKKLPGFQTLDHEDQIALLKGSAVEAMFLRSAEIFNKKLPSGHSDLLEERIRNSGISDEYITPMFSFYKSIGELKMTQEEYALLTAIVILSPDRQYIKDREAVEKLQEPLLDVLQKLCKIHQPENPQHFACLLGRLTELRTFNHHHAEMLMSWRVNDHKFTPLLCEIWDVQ
Description: transient human FXR/Gal4-luciferase reporter assay. It is filed as cell-based. Particulars: Gal4-hFXR reporter in HEK293 cells; read-out: HLE GAL-FXR EC50. Here is the method: The exemplified compounds of the present invention were tested in the transient human FXR/Gal4-luciferase reporter assay, and assay results were reported in Table 1 together with other analytical data.
A Gal4-hFXR fusion construct reporter system was used as the primary assay to characterize compound activity. A construct including 5 copies of the Gal4 promoter response element upstream of a firefly luciferase reporter cDNA was stably expressed in HEK293 cells. This reporter cell line was maintained in Dulbecco's Modified Eagle's medium (DMEM; Gibco) supplemented with 1% penicillin-streptomycin (P/S) solution, 500 μg/mL Zeocin and 10% charcoal/dextran-treated fetal bovine serum (cs-FBS) at 37° C. in a humidified 5% CO2 atmosphere. Another plasmid was constructed in which the human cytomegalovirus promoter in the pcDNA3.1 vector directs the expression of the cDNA encoding a fusion protein comprised of the DNA binding domain from the Gal4 transcription factor fused to the ligand binding domain from human FXR.
The day prior to transfection, the reporter cells in culture are detached from the plate with trypsin and plated into a T75 flask at a sufficient density to achieve approximately 90% confluence the next morning. The transfection reagents are prepared by separately diluting 25 μg of the pcDNA3.1-Gal4-FXR plasmid into 1.87 mL of Opti-MEM (Thermo-Fisher), and 40 μL of Lipofectamine 2000 (Thermo-Fisher) into 1.87 mL of Opti-MEM, and then adding the diluted DNA solution into the diluted Lipofectamine 2000 solution and incubating at room temperature for 15-20 minutes. The mixture is further diluted with 10 mL of a solution comprised of DMEM, 10% cs-FBS, and 1% P/S immediately prior to transferring to the cells. The maintenance culture media is aspirated from the cells and the final transfection mixture is added before the cells are incubated overnight at 37° C. in a humidified 5% CO2 atmosphere. This protocol can be scaled up, and the transiently transfected cells can be cryopreserved in an assay-ready format.
For compound testing, 100 nL of the compounds (serial dilutions in DMSO) are dispensed with an Echo acoustic dispenser (Labcyte) into the wells of a Corning/Costar clear bottom 384-well white plate. The transfected cells are harvested, counted, and diluted such that 10-25,000 cells in 25 μL are plated into each well of the 384-well compound assay plate. The compound-treated cells are incubated overnight at 37° C. in a humidified 5% CO2 atmosphere. The next morning 25 μL of Steady-Glo (Promega) are added to each well of the plate, the mixture is incubated for 15 min. with shaking, and luminescence is measured on an Envision (Perkin Elmer) plate reader. Background counts from cells treated with DMSO alone are subtracted from all raw counts, and the corrected values are converted to a percentage of the control response attained with 8 μM GW-4064.
(Reporter assays use an easily measured gene product as a stand-in for the process of interest.)
A word on the EC50: it is the concentration giving half of the maximal effect. On to `O=C(O)c1cccc(CN2CCC3(CC2)CC(=Cc2c(-c4c(Cl)cccc4Cl)noc2C2CC2)C3)c1` [Example 9, 3-((2-((5-Cyclopropyl-3-(2,6-dichlorophenyl)isoxazol-4-yl)methylene)-7-azaspiro[3.5]nonan-7-yl)methyl)benzoic acid], for which the EC50 was 0.959 µM.

Consider `O=C(O)c1ccc2cc(N3CCC4(CC3)CC(=Cc3c(-c5c(Cl)cccc5Cl)noc3C3CC3)C4)ccc2n1` [Example 2, 6-(2-((5-Cyclopropyl-3-(2,6-dichlorophenyl)isoxazol-4-yl)methylene)-7-azaspiro[3.5]nonan-7-yl)quinoline-2-carboxylic acid], for which the EC50 is 0.047 µM.

Staying with this test, now noted: Gal4-hFXR reporter in HEK293 cells; relative to 8 μM GW-4064; read-out: FXR EC50.
For the compound `Cc1cc2cc(N3CCC4(CC3)CC(=Cc3c(-c5c(Cl)cccc5Cl)noc3C3CC3)C4)ccc2nc1C(=O)O` [Example 43], the EC50 turned out to be 1.35 µM.

As for `COc1ccc(C(=O)O)c2ccc(N3CCC4(CC3)CC(Cc3c(-c5ccccc5C(F)(F)F)noc3C3CC3)C4)nc12` [Example 118], the EC50 was found to be 0.191 µM.

For `Clc1cccc(Cl)c1-c1noc(C2CC2)c1C=C1CC2(CCN(c3cccc(-c4nn[nH]n4)c3)CC2)C1` [Example 51], the EC50 stood at 1.08 µM.

For the compound `O=C(O)c1cc2ccc(N3CCC4(CC3)CC(=Cc3c(-c5ccccc5C(F)(F)F)noc3C3CC3)C4)cc2cn1` [Example 37], the EC50 is 1.41 µM.

For the compound `O=C(O)c1cc(OCCO)c2cc(N3CCC4(CC3)CC(=Cc3c(-c5c(Cl)cncc5Cl)noc3C3CC3)C4)ccc2n1` [Example 95], the EC50 is 0.2 µM.

`CCc1cc(N2CCC3(CC2)CC(Cc2c(-c4c(Cl)cccc4Cl)noc2C2CC2)C3)ccc1OCC(=O)O` [Example 96]: the EC50 came out at 0.793 µM.

With `COCCOc1cc(C(=O)O)nc2ccc(N3CCC4(CC3)CC(Cc3c(-c5ccccc5C(F)(F)F)noc3C3CC3)C4)cc12` [Example 97], the EC50 was found to be 0.073 µM.

As to `O=C(O)c1cc(F)c2nc(N3C4CCC3CC3(CC(Nc5c(-c6c(Cl)cccc6Cl)noc5C5CC5)C3)C4)sc2c1` (stereo not drawn) [Example 16], the EC50 is 0.514 µM.

Take `O=C(O)C1CCc2cc(N3CCC4(CC3)CC(=Cc3c(-c5ccccc5OC(F)(F)F)noc3C3CC3)C4)ccc2N1` (stereo not drawn) [Example 112]: the EC50 is 1.03 µM.

Consider `N#Cc1cccc(N2CCC3(CC2)CC(=Cc2c(-c4c(Cl)cccc4Cl)noc2C2CC2)C3)c1` [Example 49], for which the EC50 came out at 2.57 µM.

For `CN(C)C(=O)c1cc(C(F)(F)F)c2cc(N3CCC4(CC3)CC(Cc3c(-c5ccccc5C(F)(F)F)noc3C3CC3)C4)ccc2n1` [Example 178], the EC50 is 0.154 µM.

Turning to `O=C(O)c1cccc(N2CCC3(CC2)CC(=Cc2c(-c4c(Cl)cccc4Cl)noc2C2CC2)C3)c1` [Example 64], the EC50 was found to be 0.37 µM.

In the case of `CC(=O)N1CCc2cc(N3CCC4(CC3)CC(=Cc3c(-c5ccccc5OC(F)(F)F)noc3C3CC3)C4)ccc2C1` [Example 179, 1-(6-(2-((5-Cyclopropyl-3-(2-(trifluoromethoxy)phenyl)isoxazol-4-yl)methylene)-7-azaspiro[3.5]nonan-7-yl)-3,4-dihydroisoquinolin-2(1H)-yl)ethan-1-one], the EC50 worked out at 1.6 µM.

For the compound `O=C(O)c1cc2ccc(N3CCC4(CC3)CC(Cc3c(-c5ccccc5C(F)(F)F)noc3C3CC3)C4)cc2cn1` [Example 35], the EC50 is 0.96 µM.

As to `COCCN(C)C(=O)c1cc(OC2CCC2)c2cc(N3CCC4(CC3)CC(Cc3c(-c5ccccc5C(F)(F)F)noc3C3CC3)C4)ccc2n1` [Example 182], the EC50 stood at 0.024 µM.

As for `O=C(O)c1ccc(N2CCC3(CC2)CC(=Cc2c(-c4c(Cl)cccc4Cl)noc2C2CC2)C3)cc1` [Example 66], the EC50 was 0.693 µM.

In the case of `O=C(O)c1cc2ccc(N3CCC4(CC3)CC(Cc3c(-c5c(Cl)cccc5Cl)noc3C3CC3)C4)cc2nn1` [Example 65], the EC50 was 0.204 µM.

As for `COc1cc2nc(N3CCC4(CC3)CC(=Cc3c(-c5c(Cl)cncc5Cl)noc3C3CC3)C4)sc2cc1C(=O)O` [Example 102], the EC50 came to 0.157 µM.

`O=C(O)c1cc(C(F)(F)F)c2cc(N3CCC4(CC3)CC(Cc3c(-c5c(Cl)cccc5Cl)noc3C3CC3)C4)ccc2n1` [Example 41]: the EC50 was determined as 0.013 µM.

Consider `COc1cc(C(=O)O)nc2ccc(N3CCC4(CC3)CC(=Cc3c(-c5ccccc5C(F)(F)F)noc3C3CC3)C4)cc12` [Example 72], for which the EC50 was determined as 0.021 µM.

`COc1cc(C(=O)O)nc2ccc(N3CCC4(CC3)CC(=Cc3c(-c5ccccc5C(F)(F)F)noc3C(F)(F)F)C4)cc12` [Example 168]: the EC50 was 0.023 µM.

In the case of `O=C(O)c1cc(F)c2nc(N3CCC4(CC3)CC(=Cc3c(-c5ccccc5OC(F)(F)F)noc3C3CC3)C4)sc2c1` [Example 26], the EC50 was found to be 0.352 µM.

On to `O=C(O)c1cc(OC2CCCC2)c2cc(N3CCC4(CC3)CC(=Cc3c(-c5c(Cl)cncc5Cl)noc3C3CC3)C4)ccc2n1` [Example 125], for which the EC50 turned out to be 0.015 µM.

On to `O=C(O)c1cc(OC2CCC2)c2cc(N3CCC4(CC3)CC(=Cc3c(-c5ccccc5OC(F)(F)F)noc3C3CC3)C4)ccc2n1` [Example 115], for which the EC50 worked out at 0.064 µM.

Take `Cn1cc(C(=O)O)c2ccc(N3CCC4(CC3)CC(Cc3c(-c5ccccc5C(F)(F)F)noc3C3CC3)C4)cc21` [Example 38]: the EC50 is 0.028 µM.

As to `O=C(c1cc(OC2CCC2)c2cc(N3CCC4(CC3)CC(Cc3c(-c5ccccc5C(F)(F)F)noc3C3CC3)C4)ccc2n1)N1CCOCC1` [Example 181], the EC50 is 0.044 µM.

For `Cc1cccc(Cl)c1-c1noc(C2CC2)c1C=C1CC2(CCN(c3ccc4c(C(=O)O)cn(C)c4c3)CC2)C1` [Example 59], the EC50 was 0.01 µM.

`Cn1cc(C(=O)O)c2ccc(N3CCC4(CC3)CC(=Cc3c(-c5c(Cl)cccc5Cl)noc3C3CC3)C4)cc21` [Example 24]: the EC50 came to 0.009 µM.

Regarding `CCOC(=O)c1cc(C(F)(F)F)c2cc(N3CCC4(CC3)CC(Cc3c(-c5ccccc5C(F)(F)F)noc3C3CC3)C4)ccc2n1` [Example 129], the EC50 stood at 0.125 µM.

With `O=C(O)c1cc2ccc(N3CCC4(CC3)CC(Cc3c(-c5ccccc5C(F)(F)F)noc3C3CC3)C4)cc2nn1` [Example 34], the EC50 came to 1.35 µM.

As for `Cc1cccc(Cl)c1-c1noc(C2CC2)c1C=C1CC2(CCN(c3nc4c(F)cc(C(=O)O)cc4s3)CC2)C1` [Example 60], the EC50 came out at 0.144 µM.

`COCCOc1cc(C(=O)O)nc2ccc(N3CCC4(CC3)CC(=Cc3c(-c5ccccc5OC(F)(F)F)noc3C3CC3)C4)cc12` [Example 110]: the 50% effective concentration (EC50) came to 0.634 µM.

As to `O=C(O)c1cc(OC2CCC2)c2cc(N3CCC4(CC3)CC(=Cc3c(-c5ccccc5C(F)(F)F)noc3C3CC3)C4)ccc2n1` [Example 108], the EC50 is 0.004 µM.

Turning to `O=C(O)c1cc(C(F)(F)F)c2cc(N3CCC4(CC3)CC(=Cc3c(-c5ccccc5OC(F)(F)F)noc3C3CC3)C4)ccc2n1` [Example 25], the EC50 came out at 0.023 µM.

Turning to `O=C(O)C1(c2ccc(N3CCC4(CC3)CC(=Cc3c(-c5c(Cl)cccc5Cl)noc3C3CC3)C4)cc2)CC1` [Example 46], the EC50 came out at 0.391 µM.

With `O=C(O)c1cc(O[C@H]2CCOC2)c2cc(N3CCC4(CC3)CC(Cc3c(-c5ccccc5C(F)(F)F)noc3C3CC3)C4)ccc2n1` [Example 152], the EC50 was 0.006 µM.

`CCc1cncc(Cl)c1-c1noc(C2CC2)c1C=C1CC2(CCN(c3ccc4nc(C(=O)O)cc(C(F)(F)F)c4c3)CC2)C1` [Example 166]: the EC50 was 0.03 µM.

As to `O=C(O)c1ccc2sc(N3CCC4(CC3)CC(=Cc3c(-c5c(Cl)cncc5Cl)noc3C3CC3)C4)nc2c1` [Example 103], the EC50 worked out at 0.249 µM.

`O=C(O)c1ccc2cc(N3CCC4(CC3)CC(Cc3c(-c5c(Cl)cccc5Cl)noc3C3CC3)C4)ccc2n1` [Example 40]: the 50% effective concentration (EC50) was 0.051 µM.

Regarding `O=C(c1cc(OC2CCC2)c2cc(N3CCC4(CC3)CC(Cc3c(-c5ccccc5C(F)(F)F)noc3C3CC3)C4)ccc2n1)N1CCC1` [Example 187], the EC50 turned out to be 0.428 µM.
